This experiment deals with DPP1 (Homo sapiens (Human), UniProt P53634). In words: DPP1 activity inhibition test on U937 cells. The experiment is classed as cell-based. To be noted: substrate h-Gly-phe-AFC; for inhibition at 0.005 µM: U-937, 5 nM compound; for inhibition at 0.05 µM: U-937, 50 nM compound; for IC50: intracellular enzyme activity. As for the experimental part: After incubation at 37° C. for 1 h, add h-Gly-phe-AFC (10 μL) to each well and start reaction.

Where only a bound is given, the exact number is not on record here.

From patent US20250101011A1, “PEPTIDYL NITRILE COMPOUND AND USE THEREOF” (SHANGHAI YIDIAN PHARMACEUTICAL TECHNOLOGY DEVELOPMENT CO., …, priority 2022, published 2025) come the findings set out here.

DPP1, sequence (P53634 25-463): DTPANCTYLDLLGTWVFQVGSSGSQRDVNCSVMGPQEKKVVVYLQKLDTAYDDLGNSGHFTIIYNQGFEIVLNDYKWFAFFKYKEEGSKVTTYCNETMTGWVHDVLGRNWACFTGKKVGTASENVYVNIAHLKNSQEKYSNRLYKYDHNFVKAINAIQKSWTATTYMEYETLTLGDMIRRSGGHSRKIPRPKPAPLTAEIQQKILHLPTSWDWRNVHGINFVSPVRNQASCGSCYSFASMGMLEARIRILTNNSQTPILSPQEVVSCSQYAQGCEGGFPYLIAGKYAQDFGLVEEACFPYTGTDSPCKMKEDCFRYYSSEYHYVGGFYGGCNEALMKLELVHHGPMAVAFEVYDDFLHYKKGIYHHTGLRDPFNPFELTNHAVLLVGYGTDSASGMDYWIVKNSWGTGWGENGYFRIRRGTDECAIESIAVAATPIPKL

In general, inhibition refers to the relative decrease from the control value, in per cent. Low values mean a response near the control, high ones a response far below the control. For the compound `C[C@@H](O)Cn1c(=O)oc2ccc(-c3ccc(C[C@@H](C#N)NC(=O)[C@@H]4CNCCCO4)cc3)cc21` [Compound D34], the inhibition at 0.005 µM is below 30% and the inhibition at 0.05 µM fell in the range of 30 to 75%.

As a reminder, the IC50 is the concentration that inhibits the measured activity by half. For `N#C[C@H](Cc1ccc(-c2ccc3c(n2)CCC3=O)cc1F)NC(=O)[C@@H]1CNCCCO1` [Compound D111], the inhibition at 0.005 µM is below 30%, the inhibition at 0.05 µM was in the range of 75 to 100% and the IC50 was 32.9 nM.

`N#C[C@H](Cc1ccc(-c2ccc3nncn3c2)cc1)NC(=O)[C@@H]1CNCCCO1` [Compound D05] showed an inhibition at 0.005 µM below 30% and an inhibition at 0.05 µM below 30%.

Regarding `CN1CCC2(CC1)COc1ccc(-c3ccc(C[C@@H](C#N)NC(=O)[C@@H]4CNCCCO4)c(F)c3)cc12` [Compound D108], the inhibition at 0.005 µM was below 30% and the inhibition at 0.05 µM fell in the range of 75 to 100%.

The compound `N#C[C@H](Cc1ccc(-c2ccc3c(c2)C2(CN(C4COC4)C2)OC3=O)cc1F)NC(=O)[C@@H]1CNCCCO1` [Compound D56] yielded an inhibition at 0.005 µM below 30% and an inhibition at 0.05 µM of 30 to 75%.

For the compound `N#C[C@H](Cc1ccc(-c2ccc3c(c2)OC(F)(F)O3)cc1)NC(=O)[C@@H]1CNCCCO1` [Compound D07], the inhibition at 0.005 µM was below 30% and the inhibition at 0.05 µM lay within 30 to 75%.

With `Cn1c(=O)oc2ccc(-c3ccc(C[C@@H](C#N)NC(=O)[C@@H]4CNCc5ccccc5O4)cc3)cc21` [Compound D49], the inhibition at 0.005 µM is below 30% and the inhibition at 0.05 µM was 30 to 75%.

The compound `N#C[C@H](Cc1ccc(-c2cnc3c(c2)CCC3=O)cc1F)NC(=O)[C@@H]1CNCCCO1` [Compound D113] displayed an inhibition at 0.005 µM below 30% and an inhibition at 0.05 µM below 30%.

In turn, `N#C[C@H](Cc1ccc(-c2ccc3c(c2)C(=O)CC3)cc1)NC(=O)[C@@H]1CNCCCO1` [Compound D43] yielded an inhibition at 0.005 µM below 30% and an inhibition at 0.05 µM of 30 to 75%.

Compound `Cn1c(=O)oc2ccc(-c3ccc(C[C@@H](C#N)NC(=O)[C@@H]4COCC[C@@H]4N)cc3)cc21` [Compound D52] yielded an inhibition at 0.005 µM below 30% and an inhibition at 0.05 µM of 30 to 75%.

Compound `CNS(=O)(=O)c1ccc(-c2ccc(C[C@@H](C#N)NC(=O)[C@@H]3CNCCCO3)cc2)cc1` [Compound D23] yielded an inhibition at 0.005 µM below 30% and an inhibition at 0.05 µM below 30%.

As to `CC1(C)Cc2cc(-c3ccc(C[C@@H](C#N)NC(=O)[C@@H]4CNCCCO4)c(F)c3)ccc2C1=O` [Compound D117], the inhibition at 0.005 µM was in the range of 30 to 75%, the inhibition at 0.05 µM was 75 to 100% and the half-inhibitory concentration (IC50) turned out to be 6 nM.

`N#C[C@H](Cc1ccc(-c2ccc3oc(=O)n(C4CC(O)C4)c3c2)cc1F)NC(=O)[C@@H]1CNCCCO1` (stereo partly drawn) [Compound D69]: the inhibition at 0.005 µM is below 30% and the inhibition at 0.05 µM is below 30%.

With `CN1CCC2(C1)OC(=O)c1ccc(-c3ccc(C[C@@H](C#N)NC(=O)[C@@H]4CNCCCO4)c(F)c3)cc12` (stereo partly drawn) [Compound D88], the inhibition at 0.005 µM is below 30% and the inhibition at 0.05 µM was 75 to 100%.

`N#C[C@H](Cc1ccc(-c2ccc3oc(=O)n(CC4CCO4)c3c2)cc1F)NC(=O)[C@@H]1CNCCCO1` (stereo partly drawn) [Compound D95] showed an inhibition at 0.005 µM below 30%, an inhibition at 0.05 µM of 75 to 100% and a half-inhibitory concentration (IC50) of 17 nM.

`Cn1c(=O)oc2ccc(-c3ccc(C[C@@H](C#N)NC(=O)[C@@H]4CNC[C@H](F)CO4)cc3)cc21` [Compound D54] yielded an inhibition at 0.005 µM of 30 to 75% and an inhibition at 0.05 µM of 30 to 75%.

For `CN1CC2(C1)OCc1ccc(-c3ccc(C[C@@H](C#N)NC(=O)[C@@H]4CNCCCO4)c(F)c3)cc12` [Compound D103], the inhibition at 0.005 µM lay within 30 to 75%, the inhibition at 0.05 µM was 75 to 100% and the IC50 amounted to 12.2 nM.

Compound `CN1CCC2(CC1)OCc1ccc(-c3ccc(C[C@@H](C#N)NC(=O)[C@@H]4CNCCCO4)c(F)c3)cc12` [Compound D105] returned an inhibition at 0.005 µM below 30% and an inhibition at 0.05 µM below 30%.

Take `Cn1c(=O)oc2ccc(-c3ccc(C[C@@H](C#N)NC(=O)[C@@H]4CNCCCO4)s3)cc21` [Compound D53]: the concentration for half-maximal inhibition (IC50) turned out to be 16 nM.

Consider `CN1CCC2(CC1)OCc1ccc(-c3ccc(C[C@@H](C#N)NC(=O)[C@@H]4CNCCCO4)cc3)cc12` [Compound D27], for which the inhibition at 0.005 µM was below 30% and the inhibition at 0.05 µM is 30 to 75%.

Regarding `N#C[C@H](Cc1ccc(-c2ccc3c(c2)CC2(CC2)C3=O)cc1F)NC(=O)[C@@H]1CNCCCO1` [Compound D116], the inhibition at 0.005 µM is below 30% and the inhibition at 0.05 µM was in the range of 30 to 75%.

Compound `CC1(C)OC(=O)c2ccc(-c3ccc(C[C@@H](C#N)NC(=O)[C@@H]4CNCCCO4)cc3)cc21` [Compound D42] came in with an inhibition at 0.005 µM of 30 to 75%, an inhibition at 0.05 µM of 75 to 100% and a half-inhibitory concentration (IC50) of 15 nM.

For the compound `N#C[C@H](Cc1ccc(-c2ccc3oc(=O)n(C4COC4)c3c2)cc1F)NC(=O)[C@@H]1CNCCCO1` [Compound D99], the inhibition at 0.005 µM is below 30% and the inhibition at 0.05 µM is 30 to 75%.

In the case of `N#C[C@H](Cc1ccc(-c2cc3c(cn2)C(=O)CC3)cc1F)NC(=O)[C@@H]1CNCCCO1` [Compound D112], the inhibition at 0.005 µM is below 30% and the inhibition at 0.05 µM is 30 to 75%.

Consider `COCC1OC(=O)c2ccc(-c3ccc(C[C@@H](C#N)NC(=O)[C@@H]4CNCCCO4)c(F)c3)cc21` (stereo partly drawn) [Compound D77], for which the inhibition at 0.005 µM is below 30% and the inhibition at 0.05 µM fell in the range of 75 to 100%.

Compound `CN1CCC2(C=Cc3ccc(-c4ccc(C[C@@H](C#N)NC(=O)[C@@H]5CNCCCO5)c(F)c4)cc32)CC1` [Compound D90] displayed an inhibition at 0.005 µM below 30% and an inhibition at 0.05 µM of 75 to 100%.

`CN1CC(Cn2c(=O)oc3ccc(-c4ccc(C[C@@H](C#N)NC(=O)[C@@H]5CNCCCO5)c(F)c4)cc32)C1` [Compound D96] came in with a concentration for half-maximal inhibition (IC50) of 367 nM.

Consider `N#C[C@H](Cc1ccc(-c2ccc3c(c2)C2(COC2)OC3)cc1)NC(=O)[C@@H]1CNCCCO1` [Compound D22], for which the inhibition at 0.005 µM fell in the range of 30 to 75% and the inhibition at 0.05 µM lay in the range of 75 to 100%.

Compound `N#C[C@H](Cc1ccc(-c2cc3c(s2)CNC3=O)cc1)NC(=O)[C@@H]1CNCCCO1` [Compound D13] yielded an inhibition at 0.005 µM below 30% and an inhibition at 0.05 µM below 30%.

Compound `N#C[C@H](Cc1ccc(-c2ccc3c(c2)C2(CCN(C4COC4)C2)OC3=O)cc1F)NC(=O)[C@@H]1CNCCCO1` (stereo partly drawn) [Compound D89] had an inhibition at 0.005 µM below 30% and an inhibition at 0.05 µM below 30%.

Regarding `CN1CCC2(CC1)OC(=O)c1ccc(-c3ccc(C[C@@H](C#N)NC(=O)[C@@H]4CNCCCO4)cc3)cc12` [Compound D25], the inhibition at 0.005 µM was 30 to 75% and the inhibition at 0.05 µM was 75 to 100%.

Turning to `Cn1c(=O)oc2ccc(-c3ccc(C[C@@H](C#N)NC(=O)[C@@H]4CNC[C@@H](F)CO4)c(F)c3)cc21` [Compound D55], the concentration for half-maximal inhibition (IC50) stood at 6.4 nM.

Turning to `CO/N=C1\CCc2cc(-c3ccc(C[C@@H](C#N)NC(=O)[C@@H]4CNCCCO4)c(F)c3)ccc21` [Compound D65], the inhibition at 0.05 µM lay in the range of 30 to 75%.

Compound `Cn1c(=O)oc2ccc(-c3ccc(C[C@@H](C#N)NC(=O)[C@@H]4CNCC5(COC5)CO4)c(F)c3)cc21` [Compound D98] showed an inhibition at 0.005 µM below 30% and an inhibition at 0.05 µM below 30%.

`CO[C@H](C)Cn1c(=O)oc2ccc(-c3ccc(C[C@@H](C#N)NC(=O)[C@@H]4CNCCCO4)cc3)cc21` [Compound D35] showed an inhibition at 0.005 µM below 30% and an inhibition at 0.05 µM of 30 to 75%.

For `CN1CC2(C1)OC(=O)c1ccc(-c3ccc(C[C@@H](C#N)NC(=O)[C@@H]4CNCCCO4)c(F)c3)cc12` [Compound D102], the inhibition at 0.005 µM was below 30%, the inhibition at 0.05 µM was 75 to 100% and half-maximal inhibition (IC50) required 13.1 nM.

`CN1CCC2(C1)OCc1ccc(-c3ccc(C[C@@H](C#N)NC(=O)[C@@H]4CNCCCO4)c(F)c3)cc12` (stereo partly drawn) [Compound D86] showed an inhibition at 0.005 µM below 30% and an inhibition at 0.05 µM of 75 to 100%.

`C[C@@H]1CNC[C@@H](C(=O)N[C@H](C#N)Cc2ccc(-c3ccc4oc(=O)n(C)c4c3)cc2F)OC1` [Compound D110] displayed an IC50 of 4.3 nM.

On to `N#C[C@H](Cc1ccc(-c2ccc3c(c2)N2CC(=O)N=C2O3)cc1F)NC(=O)[C@@H]1CNCCCO1` [Compound D81], for which the inhibition at 0.005 µM is below 30% and the inhibition at 0.05 µM lay in the range of 30 to 75%.

Regarding `N#C[C@H](Cc1ccc(-c2ccc3nccn3c2)cc1)NC(=O)[C@@H]1CNCCCO1` [Compound D01], the “Average Inhibition % @5 nM” value (5 nM compound) is reported as “− (“−”: inhibition % < 30%)”. The “Average Inhibition % @50 nM” value (50 nM compound) is listed as “− (“−”: inhibition % < 30%)”.

Take `Cn1ccc(=O)c2ccc(-c3ccc(C[C@@H](C#N)NC(=O)[C@@H]4CNCCCO4)c(F)c3)cc21` [Compound D114]: half-maximal inhibition (IC50) was put at 867 nM.

`CN1CCC2(C1)OC(=O)c1ccc(-c3ccc(C[C@@H](C#N)NC(=O)[C@@H]4CNCCCO4)cc3)cc12` (stereo partly drawn) [Compound D37] had an inhibition at 0.005 µM below 30% and an inhibition at 0.05 µM of 30 to 75%.

For the compound `Cn1cnc(-n2c(=O)oc3ccc(-c4ccc(C[C@@H](C#N)NC(=O)[C@@H]5CNCCCO5)c(F)c4)cc32)n1` [Compound D64], the inhibition at 0.005 µM is below 30% and the inhibition at 0.05 µM is below 30%.

As for `CN1Cc2sc(-c3ccc(C[C@@H](C#N)NC(=O)[C@@H]4CNCCCO4)cc3)cc2C1=O` [Compound D14], the inhibition at 0.005 µM was below 30% and the inhibition at 0.05 µM lay within 30 to 75%.

`CN1CCC2(C=Cc3cc(-c4ccc(C[C@@H](C#N)NC(=O)[C@@H]5CNCCCO5)c(F)c4)ccc32)CC1` [Compound D91]: the inhibition at 0.005 µM lay in the range of 30 to 75%, the inhibition at 0.05 µM lay within 75 to 100% and half-maximal inhibition (IC50) required 18 nM.

Consider `N#C[C@H](Cc1ccc(-c2ccc3nnnn3c2)cc1)NC(=O)[C@@H]1CNCCCO1` [Compound D06], for which the inhibition at 0.005 µM was below 30% and the inhibition at 0.05 µM is below 30%.
